TGI and GI50 data for seven molecules are collected here from PubChem BioAssay (NCI).

Several values for one entry are separate records, joined by “and”; a condition that tells them apart may be missing. Equal values may be shown once.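 A five-concentration, 48-hour dose response in 96-well plates underlies each endpoint, interpolated linearly between surrounding concentrations. Here, GI50 denotes the concentration required for 50% inhibition of growth. TGI denotes the concentration required for complete inhibition of growth.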

What all share (experiment): inhibition of tumour cell growth, NCI panel, 48 h
For experiment [1], the system named is M14 melanoma.
Experiment [2] deals with HL-60(TB) leukemia.
Experiment [3] concerns CCRF-CEM leukemia.
Experiment [4] relates to HCC-2998 colon.
Experiment [5] relates to T-47D breast.
The subject of experiment [6] is SK-MEL-28 melanoma.
Experiment [7] relates to NCI-H522 lung.
Experiment [8] concerns HCT-116 colon.
Experiment [9] concerns OVCAR-3 ovarian.
Experiment [10] has as its system SNB-19 CNS.

On to `CN(Cc1cc(Br)cc(Br)c1O)Cc1c(O)ccc2ccccc12`, for which the TGI in experiment [1] was determined as 41.5 µM; in experiment [2] it was 46.1 µM; in experiment [3] it was 60.6 µM; in experiment [4], 37.9 µM; in experiment [5], 43.8 µM; in [6], 44.2 µM. The TGI in experiment [7] is 74.5 µM; in [8] it was 40.6 µM; in experiment [9] it was 31.8 µM; in experiment [10] it was 38.9 µM.

As to `COc1ccc2c(c1)C(=O)/C(=C/c1ccc([N+](=O)[O-])o1)O2`, the GI50 is 1.64 µM in experiment [1]; 1.74 µM in [2]; 0.513 µM in [3]; 1.89 µM in experiment [4]; 0.77 µM in [5]; 1.69 µM in experiment [6]. Also, the GI50 was 0.527 µM in experiment [7], 0.495 µM in experiment [8], 0.878 µM in experiment [9] and 3.09 µM in experiment [10]. Besides, the TGI amounted to 3.32 µM in experiment [1]; 4.19 µM in [2]; 2.19 µM in experiment [3]; 3.74 µM in experiment [4]; 2.59 µM in [5]; 3.22 µM in experiment [6]. In addition, the TGI in experiment [7] was 1.05 µM; in experiment [8], 1.22 µM; in experiment [9], 2.22 µM.

Consider `C=C(CO)[C@@H]1CC[C@]2(COC3CCCCO3)CC[C@]3(C)[C@H](CC[C@@H]4[C@@]5(C)C=C(C=O)C(=O)C(C)(C)[C@@H]5CC[C@]43C)[C@@H]12` (stereo partly drawn), for which the GI50 is 0.247 µM in experiment [1]; 0.25 µM in [2]; 0.211 µM in experiment [3]; 0.286 µM in [4]; 0.332 µM in experiment [5]; 0.254 µM in experiment [6]. The GI50 is 0.205 µM in experiment [7], 0.303 µM in experiment [8], 0.207 µM in experiment [9] and 0.414 µM in experiment [10]. In addition, the TGI came to 0.672 µM in [1]; 0.994 µM in experiment [2]; 1.12 µM in [3]; 0.838 µM in experiment [4]; 1.65 µM in experiment [5]; 0.688 µM in [6]. Moreover, the TGI in experiment [7] came to 0.487 µM; in [8], 1.08 µM; in [9], 0.428 µM; in experiment [10], 1.44 µM.

For the molecule `CN1CCN(c2ccc(NC(=O)c3cncnc3Nc3ccc(OCc4ccccn4)c(Cl)c3)cc2)CC1`, the GI50 is 0.65 µM in experiment [1]; 4.11 µM in [2]; 1.86 µM in [3]; 4.22 µM in [4]; 1.98 µM in [5]; 0.749 µM in experiment [6]. The GI50 was 4.48 µM in [7], 0.788 µM in [8], 5.23 µM in [9] and 5.11 µM in [10]. Further, the TGI amounted to 1.4 µM in experiment [1]; 9.28 µM in experiment [2]; 10.5 µM in [3]; 9.15 µM in [4]; 7.83 µM in experiment [5]; 1.64 µM in [6]. The TGI in experiment [7] stood at 10.4 µM; in experiment [8], 1.91 µM; in experiment [9], 13 µM; in [10], 11.8 µM.

`N#Cc1c(N)nc(N2CCOCC2)c(C#N)c1-c1ccccn1`: the GI50 in experiment [1] was more than 100 µM; in [2] it was more than 100 µM; in experiment [3], more than 100 µM; in experiment [4], more than 82 µM; in experiment [5], 48.4 µM; in experiment [6], more than 100 µM. Also, the GI50 in [7], in [8], in experiment [9] and in [10] was more than 100 µM in each case. Further, the TGI in experiment [1], in [2], in experiment [3], in experiment [4], in experiment [5] and in experiment [6] was more than 100 µM in each case. The TGI in experiment [7], in experiment [8], in experiment [9] and in [10] was more than 100 µM each time.

Consider `Cc1ccc(NS(=O)(=O)c2cccc(C#N)c2)c2[nH]cc(C#N)c12`, for which the GI50 in experiment [1] is 20 µM and 16.3 µM; in experiment [2], 20.1 µM and 26.8 µM; in experiment [3] it was 11.9 µM and 14.3 µM; in experiment [4], 25.1 µM; in [5] it was 5.21 µM and 10.2 µM; in experiment [6], 20.2 µM and 7.55 µM. For the same molecule, the GI50 in experiment [8] was 0.146 µM and 0.157 µM; in [9] it was 22 µM and 27.3 µM; in [10], 16.1 µM and 24.6 µM. The TGI in experiment [1] is more than 100 µM; in experiment [2] it was 65.4 µM and > 82.2 µM; in experiment [3], more than 100 µM; in experiment [4], more than 100 µM; in [5], more than 86.4 µM; in experiment [6], 98.5 µM and > 44.9 µM. The TGI in experiment [7] is 59.9 µM and 23.2 µM; in [8], more than 100 µM; in experiment [9], 60.2 µM and > 94.7 µM; in experiment [10], more than 100 µM.

Regarding `CC(=[N-])N1CCC[C@@H](Nc2c3ccccc3nc3ccccc23)C1.[Cl][Pt].[NH-]CCC[NH-]`, the GI50 in experiment [1] is 3.47 µM; in experiment [2], 2.04 µM; in experiment [3], 1.58 µM; in experiment [4], 1.7 µM; in experiment [5] it was 0.0368 µM; in [6], 0.21 µM. Further, the GI50 is 0.0258 µM in [7], 1.28 µM in experiment [8], 0.763 µM in experiment [9] and 1.49 µM in [10]. Moreover, the TGI in experiment [1] was 23.7 µM; in [2], more than 100 µM; in experiment [3], more than 100 µM; in experiment [4], 9.17 µM; in experiment [5], more than 100 µM; in experiment [6], 2.31 µM. Further, the TGI in experiment [7] was 0.165 µM; in experiment [8], more than 100 µM; in experiment [9], more than 41.6 µM; in experiment [10], more than 100 µM.
